Reference: patent US9446039B2, “Aminoheteroaryl compounds as MTH1 inhibitors” (CEMM—FORSCHUNGSZENTRUM FÜR MOLEKULARE MEDIZIN GMBH, priority 2012, dated 2016)

Columns and labels:
Type in all cases: binding
[1] = molecular target: SW480 colon carcinoma cells lysate proteins (Homo sapiens, UniProt P12814); conditions: PreyGene ACTN1
[2] = molecular target: T1, SW480 colon carcinoma cells lysate proteins (Homo sapiens, UniProt P41250); conditions: PreyGene GARS
T1 sequence (P41250 37-739): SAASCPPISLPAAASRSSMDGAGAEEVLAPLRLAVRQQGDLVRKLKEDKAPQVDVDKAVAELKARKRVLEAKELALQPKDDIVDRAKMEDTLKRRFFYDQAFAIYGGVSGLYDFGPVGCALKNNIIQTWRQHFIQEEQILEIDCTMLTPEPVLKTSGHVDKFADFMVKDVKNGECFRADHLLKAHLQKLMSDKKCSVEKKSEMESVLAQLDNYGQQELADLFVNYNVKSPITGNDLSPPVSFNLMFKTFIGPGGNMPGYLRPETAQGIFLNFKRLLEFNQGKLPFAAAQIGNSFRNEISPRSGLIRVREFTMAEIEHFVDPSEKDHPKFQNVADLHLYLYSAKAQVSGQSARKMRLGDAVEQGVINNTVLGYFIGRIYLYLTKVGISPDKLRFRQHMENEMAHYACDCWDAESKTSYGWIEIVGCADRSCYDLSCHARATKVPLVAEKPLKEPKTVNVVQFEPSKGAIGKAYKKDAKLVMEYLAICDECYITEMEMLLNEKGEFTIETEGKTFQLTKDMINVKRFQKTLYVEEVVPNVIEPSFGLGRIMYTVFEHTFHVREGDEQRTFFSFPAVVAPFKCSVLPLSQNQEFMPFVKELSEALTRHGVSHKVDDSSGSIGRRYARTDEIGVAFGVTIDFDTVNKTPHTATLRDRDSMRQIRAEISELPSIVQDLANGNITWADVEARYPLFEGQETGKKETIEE

[3] = molecular target: SW480 colon carcinoma cells lysate proteins (Homo sapiens, UniProt P83731); conditions: PreyGene RPL24; SW480 cells
[4] = molecular target: T2, SW480 colon carcinoma cells lysate proteins (Homo sapiens, UniProt Q92973); conditions: PreyGene TNPO1; SW480 cells
T2 sequence (Q92973 1-898): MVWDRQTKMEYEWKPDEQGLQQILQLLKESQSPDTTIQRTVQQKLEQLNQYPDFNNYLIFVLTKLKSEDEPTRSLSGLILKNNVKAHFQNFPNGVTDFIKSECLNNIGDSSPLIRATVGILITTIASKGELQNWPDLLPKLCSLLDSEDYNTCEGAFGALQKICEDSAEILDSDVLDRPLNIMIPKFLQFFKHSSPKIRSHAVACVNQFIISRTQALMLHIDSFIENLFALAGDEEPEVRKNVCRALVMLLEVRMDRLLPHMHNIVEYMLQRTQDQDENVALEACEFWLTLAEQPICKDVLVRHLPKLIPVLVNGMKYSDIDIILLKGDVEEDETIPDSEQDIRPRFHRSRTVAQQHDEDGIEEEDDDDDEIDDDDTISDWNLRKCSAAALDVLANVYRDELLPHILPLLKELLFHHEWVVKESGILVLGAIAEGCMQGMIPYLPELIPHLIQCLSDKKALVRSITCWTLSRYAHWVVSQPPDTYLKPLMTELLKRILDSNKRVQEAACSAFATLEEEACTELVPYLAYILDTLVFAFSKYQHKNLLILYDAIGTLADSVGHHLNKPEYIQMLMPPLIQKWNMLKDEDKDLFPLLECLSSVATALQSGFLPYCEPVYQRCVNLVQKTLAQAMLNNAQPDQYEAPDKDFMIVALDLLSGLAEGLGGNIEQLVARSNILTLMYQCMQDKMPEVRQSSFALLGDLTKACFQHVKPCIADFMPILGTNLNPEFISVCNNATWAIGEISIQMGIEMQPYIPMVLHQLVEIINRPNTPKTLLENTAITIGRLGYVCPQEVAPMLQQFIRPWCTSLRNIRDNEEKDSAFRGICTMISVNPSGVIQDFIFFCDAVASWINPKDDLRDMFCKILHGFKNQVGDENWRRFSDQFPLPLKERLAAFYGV

[5] = molecular target: SW480 colon carcinoma cells lysate proteins (Homo sapiens, UniProt P18085); conditions: PreyGene ARF4
[6] = molecular target: T3, SW480 colon carcinoma cells lysate proteins (Homo sapiens, UniProt P68104); conditions: PreyGene EEF1A1; SW480 cells
T3 sequence (P68104 1-462): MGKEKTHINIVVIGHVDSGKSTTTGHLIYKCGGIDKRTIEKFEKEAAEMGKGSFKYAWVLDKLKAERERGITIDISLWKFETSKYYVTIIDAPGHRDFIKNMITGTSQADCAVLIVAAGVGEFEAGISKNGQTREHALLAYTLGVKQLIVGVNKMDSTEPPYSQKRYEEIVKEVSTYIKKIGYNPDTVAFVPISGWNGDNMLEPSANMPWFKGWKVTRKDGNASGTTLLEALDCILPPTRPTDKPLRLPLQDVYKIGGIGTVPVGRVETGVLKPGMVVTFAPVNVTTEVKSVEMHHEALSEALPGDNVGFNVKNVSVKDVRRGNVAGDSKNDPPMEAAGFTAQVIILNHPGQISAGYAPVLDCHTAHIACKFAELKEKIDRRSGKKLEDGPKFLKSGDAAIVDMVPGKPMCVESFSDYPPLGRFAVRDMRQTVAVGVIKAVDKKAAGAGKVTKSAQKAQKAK

[7] = molecular target: SW480 colon carcinoma cells lysate proteins (Homo sapiens, UniProt P68363); conditions: PreyGene TUBA1B; SW480 cells
Chain of SW480 colon carcinoma cells lysate proteins (Homo sapiens, UniProt P68363) (P68363 whole entry): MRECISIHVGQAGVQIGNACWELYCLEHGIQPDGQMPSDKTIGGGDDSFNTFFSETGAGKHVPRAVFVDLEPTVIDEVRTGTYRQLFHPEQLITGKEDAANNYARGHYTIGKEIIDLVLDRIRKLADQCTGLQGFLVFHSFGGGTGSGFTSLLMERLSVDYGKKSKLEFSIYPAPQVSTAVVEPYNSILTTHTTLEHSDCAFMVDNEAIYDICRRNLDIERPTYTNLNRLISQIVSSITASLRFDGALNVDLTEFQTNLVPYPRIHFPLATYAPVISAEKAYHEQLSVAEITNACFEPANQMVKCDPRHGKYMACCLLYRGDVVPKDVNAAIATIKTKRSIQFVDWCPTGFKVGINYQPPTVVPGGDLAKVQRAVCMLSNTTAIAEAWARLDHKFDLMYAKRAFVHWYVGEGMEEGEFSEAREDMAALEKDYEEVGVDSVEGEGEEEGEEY

Chain of SW480 colon carcinoma cells lysate proteins (Homo sapiens, UniProt P12814) (P12814 whole entry): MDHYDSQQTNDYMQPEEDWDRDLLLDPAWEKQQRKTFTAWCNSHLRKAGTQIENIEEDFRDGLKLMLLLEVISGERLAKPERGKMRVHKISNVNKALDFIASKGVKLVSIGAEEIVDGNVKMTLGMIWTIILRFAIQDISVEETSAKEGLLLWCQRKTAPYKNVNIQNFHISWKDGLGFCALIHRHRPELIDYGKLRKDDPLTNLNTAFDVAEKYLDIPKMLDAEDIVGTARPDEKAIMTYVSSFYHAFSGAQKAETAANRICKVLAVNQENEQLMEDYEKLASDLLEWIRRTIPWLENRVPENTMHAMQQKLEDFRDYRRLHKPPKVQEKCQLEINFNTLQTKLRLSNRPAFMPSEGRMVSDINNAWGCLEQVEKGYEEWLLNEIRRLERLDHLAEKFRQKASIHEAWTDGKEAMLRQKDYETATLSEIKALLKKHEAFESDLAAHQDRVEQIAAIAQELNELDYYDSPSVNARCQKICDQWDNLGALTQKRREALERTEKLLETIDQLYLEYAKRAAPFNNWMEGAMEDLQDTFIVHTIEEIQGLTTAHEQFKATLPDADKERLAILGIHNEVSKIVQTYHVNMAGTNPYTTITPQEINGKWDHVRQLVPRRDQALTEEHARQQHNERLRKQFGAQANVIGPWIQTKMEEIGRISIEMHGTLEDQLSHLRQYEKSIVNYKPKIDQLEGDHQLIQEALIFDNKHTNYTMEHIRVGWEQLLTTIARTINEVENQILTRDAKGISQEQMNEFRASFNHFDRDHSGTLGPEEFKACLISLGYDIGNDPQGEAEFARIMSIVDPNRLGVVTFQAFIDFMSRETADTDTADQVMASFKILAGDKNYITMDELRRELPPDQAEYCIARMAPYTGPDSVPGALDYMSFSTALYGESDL
Chain of SW480 colon carcinoma cells lysate proteins (Homo sapiens, UniProt P18085) (P18085 whole entry): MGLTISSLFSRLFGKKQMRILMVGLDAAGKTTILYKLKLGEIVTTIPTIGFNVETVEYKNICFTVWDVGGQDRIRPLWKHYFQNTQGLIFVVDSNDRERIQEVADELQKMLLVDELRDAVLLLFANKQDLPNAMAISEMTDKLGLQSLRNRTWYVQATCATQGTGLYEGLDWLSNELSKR

C[C@H](Oc1cc(-c2cnn(C3CCNCC3)c2)cnc1N)c1c(Cl)ccc(F)c1Cl [(5)-crizotinib]
AvgP [1]: 0.2142 | SC.Exp. 1-1 [1]: 3 | SC.Exp. 1-2 [1]: 1 | SC.Exp. 2-1 [1]: 0 | SC.Exp. 2-2 [1]: 0 | Sum (SC.Exp.) [1]: 4 | AvgP [2]: 0.4818 | SC.Exp. 1-1 [2]: 6 | SC.Exp. 1-2 [2]: 7 | SC.Exp. 2-1 [2]: 0 | SC.Exp. 2-2 [2]: 0 | Sum (SC.Exp.) [2]: 13 | AvgP [3]: 0 | SC.Exp. 1-1 [3]: 4 | SC.Exp. 1-2 [3]: 4 | SC.Exp. 2-1 [3]: 3 | SC.Exp. 2-2 [3]: 4 | SC.Exp. Sum [3]: 15 | AvgP [4]: 0 | SC.Exp. 1-1 [4]: 9 | SC.Exp. 1-2 [4]: 7 | SC.Exp. 2-1 [4]: 6 | SC.Exp. 2-2 [4]: 6 | SC.Exp. Sum [4]: 28 | AvgP [5]: 0.352 | SC.Exp. 1-1 [5]: 3 | SC.Exp. 1-2 [5]: 3 | SC.Exp. 2-1 [5]: 0 | SC.Exp. 2-2 [5]: 0 | Sum (SC.Exp.) [5]: 6 | AvgP [6]: 0 | SC.Exp. 1-1 [6]: 23 | SC.Exp. 1-2 [6]: 21 | SC.Exp. 2-1 [6]: 8 | SC.Exp. 2-2 [6]: 8 | SC.Exp. Sum [6]: 60 | AvgP [7]: 0 | SC.Exp. 1-1 [7]: 1 | SC.Exp. 1-2 [7]: 1 | SC.Exp. 2-1 [7]: 0 | SC.Exp. 2-2 [7]: 0 | SC.Exp. Sum [7]: 2
